IC50 data for 27 compounds are collected here from BindingDB's records for doi:10.1016/s0960-894x(03)00014-3 (Merck Research Laboratories, 2003).

The experiment is described as follows: Inhibition of T-cell proliferation was determined by a human T-cell assay.
As to `CCCCNC(=O)O[C@H]1CC[C@@](CNC(=O)c2ccccc2OC)(c2ccccc2)CC1` [Butyl-carbamic acid 4-[(2-methoxy-benzoylamino)-methyl]-4-phenyl-cyclohexyl ester], the midpoint of inhibition, the IC50, lay at 688 nM.

`COc1ccccc1C(=O)NC[C@]1(c2ccccc2)CC[C@H](NC(=O)CCc2ccccc2)CC1` [2-Methoxy-N-[1-phenyl-4-(3-phenyl-propionylamino)-cyclohexylmethyl]-benzamide] had a concentration for half-maximal inhibition (IC50) of 200 nM.

As to `C=CCNC(=O)O[C@H]1CC[C@@](CNC(=O)c2ccccc2OC)(c2ccccc2)CC1` [Allyl-carbamic acid 4-[(2-methoxy-benzoylamino)-methyl]-4-phenyl-cyclohexyl ester], half-maximal inhibition (IC50) required 361 nM.

As to `COc1ccccc1C(=O)NC[C@]1(c2ccccc2)CC[C@H](NC(=O)c2ccccc2)CC1` [N-(4-Benzoylamino-1-phenyl-cyclohexylmethyl)-2-methoxy-benzamide], it took 154 nM to reach half-maximal inhibition (IC50). This IC50 lies about 2.3-fold lower than the previous one.

In turn, `C=CCOC(=O)N[C@H]1CC[C@](CNC(=O)c2ccccc2OC)(c2ccccc2)CC1` [{4-[(2-Methoxy-benzoylamino)-methyl]-4-phenyl-cyclohexyl}-carbamic acid allyl ester] came in with an IC50 of 354 nM.

The compound `C=CCNC(=O)O[C@H]1CC[C@](CNC(=O)c2ccccc2OC)(c2ccccc2)CC1` [Allyl-carbamic acid 4-[(2-methoxy-benzoylamino)-methyl]-4-phenyl-cyclohexyl ester] registered an IC50 of 1100 nM.

In the case of `C=CCNC(=O)N[C@H]1CC[C@@](CNC(=O)c2ccccc2OC)(c2ccccc2)CC1` [N-[4-(3-Allyl-ureido)-1-phenyl-cyclohexylmethyl]-2-methoxy-benzamide], the IC50 stood at 676 nM.

Turning to `CCCNC(=O)O[C@H]1CC[C@@](CNC(=O)c2ccccc2OC)(c2ccccc2)CC1` [Propyl-carbamic acid 4-[(2-methoxy-benzoylamino)-methyl]-4-phenyl-cyclohexyl ester], the concentration for half-maximal inhibition (IC50) stood at 273 nM.

As for `COc1ccccc1C(=O)NC[C@]1(c2ccccc2)CC[C@@H](NC(=O)SC)CC1` [{4-[(2-Methoxy-benzoylamino)-methyl]-4-phenyl-cyclohexyl}-thiocarbamic acid methyl ester], inhibition was half-maximal at 618 nM (IC50).

Take `CNC(=O)O[C@H]1CC[C@@](CNC(=O)c2ccccc2OC)(c2ccccc2)CC1` [Methyl-carbamic acid 4-[(2-methoxy-benzoylamino)-methyl]-4-phenyl-cyclohexyl ester]: the concentration for half-maximal inhibition (IC50) was 195 nM.

Compound `COc1ccccc1C(=O)NCC1(c2ccccc2)CCC(=O)CC1` [2-Methoxy-N-(4-oxo-1-phenyl-cyclohexylmethyl)-benzamide] registered an IC50 of 1200 nM. Against the preceding compound, the IC50 is about 6.2-fold higher.

`COCCNC(=O)O[C@H]1CC[C@@](CNC(=O)c2ccccc2OC)(c2ccccc2)CC1` [(2-Methoxy-ethyl)-carbamic acid 4-[(2-methoxy-benzoylamino)-methyl]-4-phenyl-cyclohexyl ester]: the midpoint of inhibition, the IC50, lay at 1000 nM.

Compound `C=CCNC(=O)N[C@H]1CC[C@](CNC(=O)c2ccccc2OC)(c2ccccc2)CC1` [N-[4-(3-Allyl-ureido)-1-phenyl-cyclohexylmethyl]-2-methoxy-benzamide] returned an IC50 of 430 nM.

The compound `COc1ccccc1C(=O)NC[C@]1(c2ccccc2)CC[C@H](OC(=O)Nc2ccccc2)CC1` [Phenyl-carbamic acid 4-[(2-methoxy-benzoylamino)-methyl]-4-phenyl-cyclohexyl ester] returned a half-maximal inhibitory concentration (IC50) of 237 nM.

The compound `COc1ccccc1C(=O)NC[C@]1(c2ccccc2)CC[C@H](OC(=O)NC(C)C)CC1` [Isopropyl-carbamic acid 4-[(2-methoxy-benzoylamino)-methyl]-4-phenyl-cyclohexyl ester] registered a half-inhibitory concentration (IC50) of 892 nM. This IC50 lies about 3.8-fold higher than the previous one.

The compound `COc1ccccc1C(=O)NC[C@]1(c2ccccc2)CC[C@H](NC(=O)Cc2ccccc2)CC1` [2-Methoxy-N-(1-phenyl-4-phenylacetylamino-cyclohexylmethyl)-benzamide] yielded an IC50 of 609 nM.

For `C=C(C)CNC(=O)O[C@H]1CC[C@@](CNC(=O)c2ccccc2OC)(c2ccccc2)CC1` [(2-Methyl-allyl)-carbamic acid 4-[(2-methoxy-benzoylamino)-methyl]-4-phenyl-cyclohexyl ester], the 50% inhibitory concentration (IC50) is 688 nM.

On to `C=CCN(C)C(=O)O[C@H]1CC[C@](CNC(=O)c2ccccc2OC)(c2ccccc2)CC1` [Allyl-methyl-carbamic acid 4-[(2-methoxy-benzoylamino)-methyl]-4-phenyl-cyclohexyl ester], for which the half-maximal inhibitory concentration (IC50) came to 659 nM.

`COC(=O)N[C@H]1CC[C@@](CNC(=O)c2ccccc2OC)(c2ccccc2)CC1` [{4-[(2-Methoxy-benzoylamino)-methyl]-4-phenyl-cyclohexyl}-carbamic acid methyl ester] came in with a half-maximal inhibitory concentration (IC50) of 1060 nM.

`CNC(=O)O[C@H]1CC[C@](CNC(=O)c2ccccc2OC)(c2ccccc2)CC1` [Methyl-carbamic acid 4-[(2-methoxy-benzoylamino)-methyl]-4-phenyl-cyclohexyl ester]: the IC50 was found to be 1260 nM.

`CCCCNC(=O)O[C@H]1CC[C@](CNC(=O)c2ccccc2OC)(c2ccccc2)CC1` [Butyl-carbamic acid 4-[(2-methoxy-benzoylamino)-methyl]-4-phenyl-cyclohexyl ester]: the concentration for half-maximal inhibition (IC50) stood at 320 nM.

In the case of `C=CCOC(=O)N[C@H]1CC[C@@](CNC(=O)c2ccccc2OC)(c2ccccc2)CC1` [{4-[(2-Methoxy-benzoylamino)-methyl]-4-phenyl-cyclohexyl}-carbamic acid allyl ester], it took 539 nM to reach half-maximal inhibition (IC50).

Consider `COc1ccccc1C(=O)NC[C@]1(c2ccccc2)CC[C@H](OC(N)=O)CC1` [Carbamic acid 4-[(2-methoxy-benzoylamino)-methyl]-4-phenyl-cyclohexyl ester], for which the IC50 amounted to 519 nM.

Consider `COc1ccccc1C(=O)NC[C@]1(c2ccccc2)CC[C@@H](OC(=O)NCCO)CC1` [(2-Hydroxy-ethyl)-carbamic acid 4-[(2-methoxy-benzoylamino)-methyl]-4-phenyl-cyclohexyl ester], for which half-maximal inhibition (IC50) required 1790 nM.

In the case of `COc1ccccc1C(=O)NC[C@]1(c2ccccc2)CC[C@@H](OC(=O)NC(C)C)CC1` [Isopropyl-carbamic acid 4-[(2-methoxy-benzoylamino)-methyl]-4-phenyl-cyclohexyl ester], the concentration for half-maximal inhibition (IC50) stood at 222 nM.

The compound `C/C=C/C(=O)N[C@H]1CC[C@](CNC(=O)c2ccccc2OC)(c2ccccc2)CC1` [N-[4-((E)-But-2-enoylamino)-1-phenyl-cyclohexylmethyl]-2-methoxy-benzamide] returned a half-maximal inhibitory concentration (IC50) of 399 nM.

As to `COc1ccccc1C(=O)NC[C@]1(c2ccccc2)CC[C@H](OC(=O)NCc2ccccc2)CC1` [Benzyl-carbamic acid 4-[(2-methoxy-benzoylamino)-methyl]-4-phenyl-cyclohexyl ester], the IC50 was 915 nM.
